In US4087461A, “Anti-androgenic steroids” (The Johns Hopkins University, priority 1977, dated 1978):

How the values were obtained:
[1] = test system: androgen biosynthesis stimulated by human chorionic gonadotropin; assay: study in hypophysectomized rats stimulated with human chorionic gonadotropin: ventral prostate weight; format: in vivo, hypophysectomized male Sprague-Dawley rats
Protocol: In order to assess the action of the estryne in the presence of exogenous stimulation of androgen synthesis, hypophysectomized male rats received estryne 3.0 mg (0.2 ml sesame oil) sc and/or human chorionic gonadotropin 2 units and 4 units (0.9% saline) sc daily for 7 days. Sacrifice and weighing of the organs was performed on the eighth day.
The wet weight of the ventral prostate was decreased (20-25%) in hypophysectomized animal receiving estryne (12mg/kg body weight) and HGG (2 units) as compared to controls receiving just HGG (2 units).

immature uterus = assay: study of estrogenic activity (uterine weight of immature mice); settings: 100 μg total dose over three days, sc
Protocol: The animals were housed in a temperature controlled room under a constant lighting schedule and maintained on a diet of Charles River Rat Formula and water ad libitum. The diet of the hypophy-sectomized animals was supplemented with organges.
On the fourth day the uteri were removed and weighed.
Thus, immature female mice received estryne at doses up to a maximum of 100 μg total dose over three days, and the wet weight of the uteri were determined.

[2] = test system: competition with testosterone at the target tissue; assay: study in castrate rats receiving testosterone propionate: prostatic weight; format: in vivo, male Sprague-Dawley rats (castrated); settings: estryne 12mg/kg i.p. and testosterone propionate 0.3mg daily for seven days; castrated 10 days prior
Protocol: To determine if the estryne competes with testosterone at the target tissue rats were orchiectomized under ether anesthesia via the scrotal route 10 days prior to treatment. Testosterone propionate 0.3 mg (0.2 ml sesame oil) was administered daily for 7 days subcutaneously. Estryne 12 mg/kg (0.2 ml propylene glycol) was given daily for 7 days interperitioneally. Control groups received either testosterone propionate (0.3 mg) or carrier oil daily for 7 days. The animals were sacrificed on the eighth day and the organs were weighed.
Animals castrated 10 days prior to treatment received both estryne (12mg/kg weight) and testosterone propionate (0.3mg) daily for seven days.

## C[C@]12CC[C@@H]3C(=O)CCC(=O)CC#CC[C@H]3[C@@H]1CCC2=O [Compound 1, 5,10-secoestr-5-yne-3,10,17-trione]
[1]; estryne 12mg/kg body weight and HCG 2 units, vs controls receiving HCG 2 units only, 7 days
  decrease in wet weight of the ventral prostate: 20-25%
[1]; higher doses of HCG, in words
  effect on ventral prostate weight at higher doses of HCG: less pronounced
Immature uterus
  stimulation of the immature uterus: no stimulation of the immature uterus
[2]
  depression of prostatic weight: No significant depression of prostatic weight
